Where two headings read alike, the source gives them in different places.
How the values were obtained:
Assay type in all cases: binding
[1] = biological target: T1, HeLa cell extract proteins (Homo sapiens, UniProt P68871)
T1 construct: endogenous in cells; host or cells: HeLa cell extract

[2] = biological target: T2, HeLa cell extract proteins (Homo sapiens, UniProt O75534)
T2 construct: endogenous in cells; host or cells: HeLa cell extract
T2 sequence (O75534 1-798): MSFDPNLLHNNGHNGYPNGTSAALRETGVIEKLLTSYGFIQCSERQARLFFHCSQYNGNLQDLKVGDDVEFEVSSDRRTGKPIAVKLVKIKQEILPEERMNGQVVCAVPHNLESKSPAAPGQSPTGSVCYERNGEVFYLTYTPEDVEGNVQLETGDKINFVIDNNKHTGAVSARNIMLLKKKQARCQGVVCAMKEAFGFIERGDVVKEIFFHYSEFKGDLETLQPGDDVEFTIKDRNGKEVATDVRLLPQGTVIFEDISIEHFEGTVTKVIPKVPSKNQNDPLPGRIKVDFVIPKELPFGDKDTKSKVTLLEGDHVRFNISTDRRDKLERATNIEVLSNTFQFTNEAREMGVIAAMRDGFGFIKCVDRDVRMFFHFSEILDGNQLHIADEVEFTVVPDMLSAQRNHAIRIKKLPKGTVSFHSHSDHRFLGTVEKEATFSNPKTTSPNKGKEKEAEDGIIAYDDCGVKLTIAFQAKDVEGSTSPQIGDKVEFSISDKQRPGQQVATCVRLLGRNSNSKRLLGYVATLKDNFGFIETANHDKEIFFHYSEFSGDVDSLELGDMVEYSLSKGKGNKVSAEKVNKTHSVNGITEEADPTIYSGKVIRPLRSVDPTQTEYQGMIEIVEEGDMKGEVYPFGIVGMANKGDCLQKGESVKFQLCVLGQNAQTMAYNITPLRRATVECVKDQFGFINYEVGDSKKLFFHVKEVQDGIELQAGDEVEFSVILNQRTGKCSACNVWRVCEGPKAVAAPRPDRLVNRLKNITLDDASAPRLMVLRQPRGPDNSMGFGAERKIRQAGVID

[3] = biological target: T3, HeLa cell extract proteins (Homo sapiens, UniProt P10619)
T3 construct: endogenous in cells; host or cells: HeLa cell extract
T3 sequence (P10619 29-480): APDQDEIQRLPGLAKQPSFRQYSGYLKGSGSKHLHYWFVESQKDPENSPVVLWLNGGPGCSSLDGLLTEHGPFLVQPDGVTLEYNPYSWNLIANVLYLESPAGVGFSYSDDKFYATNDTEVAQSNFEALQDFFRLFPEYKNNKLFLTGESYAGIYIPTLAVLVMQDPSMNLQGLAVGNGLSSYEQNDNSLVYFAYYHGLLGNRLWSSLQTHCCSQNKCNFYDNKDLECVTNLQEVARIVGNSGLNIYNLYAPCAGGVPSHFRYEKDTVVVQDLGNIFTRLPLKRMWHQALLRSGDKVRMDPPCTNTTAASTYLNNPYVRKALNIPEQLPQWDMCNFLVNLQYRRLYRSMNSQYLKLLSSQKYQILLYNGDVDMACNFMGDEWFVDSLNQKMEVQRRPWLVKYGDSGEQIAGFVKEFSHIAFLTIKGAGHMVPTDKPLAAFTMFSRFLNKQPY

[4] = biological target: T4, HeLa cell extract proteins (Homo sapiens, UniProt Q12904)
T4 construct: endogenous in cells; host or cells: HeLa cell extract
T4 sequence (Q12904 1-312): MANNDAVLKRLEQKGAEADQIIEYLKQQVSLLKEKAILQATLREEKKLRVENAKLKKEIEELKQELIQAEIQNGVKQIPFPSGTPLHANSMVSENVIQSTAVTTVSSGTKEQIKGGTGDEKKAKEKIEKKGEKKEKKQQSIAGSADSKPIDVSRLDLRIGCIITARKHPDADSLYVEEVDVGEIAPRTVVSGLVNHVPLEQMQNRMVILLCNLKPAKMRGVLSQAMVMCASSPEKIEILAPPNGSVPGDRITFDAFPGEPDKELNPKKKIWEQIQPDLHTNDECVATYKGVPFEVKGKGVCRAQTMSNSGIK

[5] = biological target: T5, HeLa cell extract proteins (Homo sapiens, UniProt P48729); details: protein CSNK1A1; HeLa
T5 construct: endogenous in cells; host or cells: HeLa cell extract

[6] = biological target: T6, HeLa cell extract proteins (Homo sapiens, UniProt Q9Y266); details: protein NUDC; HeLa
T6 construct: endogenous in cells; host or cells: HeLa cell extract

[7] = biological target: T7, HeLa cell extract proteins (Homo sapiens, UniProt P41250); details: protein GARS; HeLa
T7 construct: endogenous in cells; host or cells: HeLa cell extract
T7 sequence (P41250 37-739): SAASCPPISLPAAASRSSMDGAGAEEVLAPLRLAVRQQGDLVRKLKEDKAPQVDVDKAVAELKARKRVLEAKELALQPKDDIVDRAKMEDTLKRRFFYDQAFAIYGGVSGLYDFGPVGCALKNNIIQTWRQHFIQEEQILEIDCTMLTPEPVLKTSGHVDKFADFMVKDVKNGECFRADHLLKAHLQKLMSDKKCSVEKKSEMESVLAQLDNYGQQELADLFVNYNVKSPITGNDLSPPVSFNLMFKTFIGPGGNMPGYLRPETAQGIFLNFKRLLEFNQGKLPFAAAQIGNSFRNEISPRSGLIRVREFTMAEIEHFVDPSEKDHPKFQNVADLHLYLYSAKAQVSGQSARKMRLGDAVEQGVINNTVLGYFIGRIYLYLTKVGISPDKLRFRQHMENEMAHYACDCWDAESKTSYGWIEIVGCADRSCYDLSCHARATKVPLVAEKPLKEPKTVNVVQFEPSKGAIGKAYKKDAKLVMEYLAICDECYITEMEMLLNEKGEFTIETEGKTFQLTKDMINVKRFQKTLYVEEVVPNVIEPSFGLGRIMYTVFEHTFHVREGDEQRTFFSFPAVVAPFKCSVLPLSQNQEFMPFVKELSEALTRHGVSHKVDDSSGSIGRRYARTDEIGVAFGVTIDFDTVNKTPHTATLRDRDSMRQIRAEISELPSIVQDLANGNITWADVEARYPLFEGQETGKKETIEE

[8] = HeLa, protein HBB (BETA-GLOBIN GENE FROM A T[…])

T6 sequence (Q9Y266 whole entry): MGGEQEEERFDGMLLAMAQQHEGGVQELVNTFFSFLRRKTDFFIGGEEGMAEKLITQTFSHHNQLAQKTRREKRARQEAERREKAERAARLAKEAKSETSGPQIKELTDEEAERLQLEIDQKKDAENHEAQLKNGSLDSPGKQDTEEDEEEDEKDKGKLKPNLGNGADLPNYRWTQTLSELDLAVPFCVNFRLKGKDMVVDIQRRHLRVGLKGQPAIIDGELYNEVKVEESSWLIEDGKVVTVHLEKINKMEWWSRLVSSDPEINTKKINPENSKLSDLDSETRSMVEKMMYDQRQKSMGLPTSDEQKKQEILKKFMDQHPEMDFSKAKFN
T5 sequence (P48729 whole entry): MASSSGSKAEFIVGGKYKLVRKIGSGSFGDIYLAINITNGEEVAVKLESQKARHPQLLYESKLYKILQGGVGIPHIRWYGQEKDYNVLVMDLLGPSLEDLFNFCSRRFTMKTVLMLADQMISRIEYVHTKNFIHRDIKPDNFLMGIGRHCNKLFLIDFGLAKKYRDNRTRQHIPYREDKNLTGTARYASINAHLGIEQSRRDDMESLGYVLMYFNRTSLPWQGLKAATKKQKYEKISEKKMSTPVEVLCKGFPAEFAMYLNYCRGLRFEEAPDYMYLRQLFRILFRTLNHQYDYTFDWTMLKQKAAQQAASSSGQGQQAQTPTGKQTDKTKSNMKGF
T1 sequence (P68871 whole entry): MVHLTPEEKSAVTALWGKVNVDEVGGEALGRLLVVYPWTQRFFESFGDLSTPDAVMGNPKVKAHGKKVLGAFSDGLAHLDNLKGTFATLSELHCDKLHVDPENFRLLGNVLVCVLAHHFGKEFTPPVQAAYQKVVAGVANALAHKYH

Row | Structure (SMILES) | fold changes relative to vehicle control [1, 8] | fold changes relative to vehicle control ([2]; HeLa, protein CSDE1) | fold changes relative to vehicle control ([3]; HeLa, protein CTSA) | fold changes relative to vehicle control ([4]; HeLa, protein SCYE1) | fold changes relative to vehicle control [5] | fold changes relative to vehicle control [6] | fold changes relative to vehicle control [7] | other results
1 | Nc1nc2c(c(=O)[nH]1)N(C=O)C(CNc1ccc(C(=O)N[C@@H](CCC(=O)O)C(=O)O)cc1)CN2 (stereo partly shown) [LEU, leucovorin] | 1.13 | 0.96 | 1.01 | 0.85 | – | – | – | –
2 | NCCCNc1ccc(C(=O)NC(CCC(=O)O)C(=O)O)cc1 (stereo not shown) [compound 7] | 0.87 | 1.05 | 1.13 | 0.86 | – | – | – | –
3 | CCCCCCOc1cccc(Cc2cnc(N)nc2N)c1 [compound 2] | – | – | – | – | 1.17 | 1.92 | 1.74 | –
4 | CCCCCCOc1ccc(Cc2cnc(N)nc2N)cc1 [compound 1] | – | – | – | – | 0.93 | 1.23 | 1.14 | –
5 | Nc1nc2cccc(-c3ccccc3)c2n1Cc1ccc(Cl)c(Cl)c1 [compound 3] | – | – | – | – | 1.06 | 1.06 | 0.93 | –
6 | NCCOCCOCC(=O)Nc1nc2ncc(CNc3ccc(C(=O)NC(CCC(=O)O)C(=O)O)cc3)nc2c(=O)[nH]1 (stereo not shown) [compound 6] | 0.99 | 1.22 | 0.87 | 0.99 | – | – | – | –
7 | Nc1nc2[nH]cc(CCc3ccc(C(=O)N[C@@H](CCC(=O)O)C(=O)O)cc3)c2c(=O)[nH]1 [PTX, pemetrexed] | – | – | – | – | – | – | – | fold changes relative to vehicle control [1]: 0.94; fold changes relative to vehicle control [2]: 1.14; fold changes relative to vehicle control [3]: 0.77; fold changes relative to vehicle control [4]: 0.91

From PMC6199744, “Development of Chemical Proteomics for the Folateome and Analysis of the Kinetoplastid Folateome” (ACS Infectious Diseases, 2018)
